Data: the supplement of paper PMC10307832

Experiments:
Assay in all cases: relative viability (nuclei count vs DMSO), 5 days (fraction); higher = more cells survive
Carfilzomib + Foretinib = compound: CC(C)C[C@H](NC(=O)[C@H](CCc1ccccc1)NC(=O)CN1CCOCC1)C(=O)N[C@@H](Cc1ccccc1)C(=O)N[C@@H](CC(C)C)C(=O)[C@@]1(C)CO1 [Carfilzomib] + COc1cc2c(Oc3ccc(NC(=O)C4(C(=O)Nc5ccc(F)cc5)CC4)cc3F)ccnc2cc1OCCCN1CCOCC1 [Foretinib] (partner 0.25 µM)
In short: (§1)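 Relative viability divides the nuclei count in treated wells by that in vehicle wells. Lung cancer cell lines were seeded in 1536-well plates, dosed by pin tool the next day, and fixed and stained after 5 days in one step with final 0.05% Triton X-100, 1% formaldehyde and 1 ug/ml Hoechst. Dosing was a single drug or a fixed anchor-drug dose plus five library-drug doses (not always all listed) in √10 steps, and values are medians of duplicate plates imaged at 4×.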

Carfilzomib + Pictilisib = compound: CC(C)C[C@H](NC(=O)[C@H](CCc1ccccc1)NC(=O)CN1CCOCC1)C(=O)N[C@@H](Cc1ccccc1)C(=O)N[C@@H](CC(C)C)C(=O)[C@@]1(C)CO1 [Carfilzomib] + CS(=O)(=O)N1CCN(Cc2cc3nc(-c4cccc5[nH]ncc45)nc(N4CCOCC4)c3s2)CC1 [Pictilisib] (partner 1 µM)
In short: as §1

Crizotinib + Navitoclax = compound: C[C@@H](Oc1cc(-c2cnn(C3CCNCC3)c2)cnc1N)c1c(Cl)ccc(F)c1Cl [Crizotinib] + CC1(C)CCC(c2ccc(Cl)cc2)=C(CN2CCN(c3ccc(C(=O)NS(=O)(=O)c4ccc(N[C@H](CCN5CCOCC5)CSc5ccccc5)c(S(=O)(=O)C(F)(F)F)c4)cc3)CC2)C1 [Navitoclax] (partner 0.5 µM)
In short: as §1

Crizotinib + Foretinib = compound: C[C@@H](Oc1cc(-c2cnn(C3CCNCC3)c2)cnc1N)c1c(Cl)ccc(F)c1Cl [Crizotinib] + COc1cc2c(Oc3ccc(NC(=O)C4(C(=O)Nc5ccc(F)cc5)CC4)cc3F)ccnc2cc1OCCCN1CCOCC1 [Foretinib] (partner 0.25 µM)
In short: as §1

Row | Cell Line | relative viability (Carfilzomib + Foretinib; first compound 0.001 µM) | relative viability (Carfilzomib + Foretinib; first compound 0.003162 µM) | relative viability (Carfilzomib + Foretinib; first compound 0.01 µM) | relative viability (Carfilzomib + Foretinib; first compound 0.03162 µM) | relative viability (Carfilzomib + Foretinib; first compound 0.1 µM) | relative viability (Carfilzomib + Pictilisib; first compound 0.001 µM) | relative viability (Carfilzomib + Pictilisib; first compound 0.003162 µM) | relative viability (Carfilzomib + Pictilisib; first compound 0.01 µM) | relative viability (Carfilzomib + Pictilisib; first compound 0.03162 µM) | relative viability (Carfilzomib + Pictilisib; first compound 0.1 µM) | relative viability (Crizotinib + Navitoclax; first compound 0.01 µM) | relative viability (Crizotinib + Navitoclax; first compound 0.03162 µM) | relative viability (Crizotinib + Navitoclax; first compound 0.1 µM) | relative viability (Crizotinib + Navitoclax; first compound 0.3162 µM) | relative viability (Crizotinib + Navitoclax; first compound 1 µM) | relative viability (Crizotinib + Foretinib; first compound 0.01 µM) | relative viability (Crizotinib + Foretinib; first compound 0.03162 µM) | relative viability (Crizotinib + Foretinib; first compound 0.1 µM) | relative viability (Crizotinib + Foretinib; first compound 1 µM) | relative viability (Crizotinib + Foretinib; first compound 0.3162 µM)
1 | HCC-15 | 0.96 | 1.19 | 1.12 | 0.589 | 0.149 | 0.596 | 0.863 | 0.784 | 0.522 | 0.156 | 0.644 | 0.736 | 0.704 | 0.664 | 0.76 | 1.07 | 1 | 1.03 | 0.987 | 
2 | HCC-44 |  |  |  |  |  | 0.506 | 0.674 | 0.57 | 0.654 | 0.166 | 0.838 | 0.969 | 0.963 | 1.01 | 1.05 |  |  |  |  | 
3 | HCC-78 | 0.541 | 0.576 | 0.581 | 0.571 | 0.322 | 0.207 | 0.194 | 0.236 | 0.134 | 0.117 | 0.774 | 0.738 | 0.749 | 0.685 | 0.628 |  | 0.685 | 0.566 | 0.599 | 0.592
4 | HCC-366 | 0.933 | 0.963 | 0.916 | 0.648 | 0.121 | 0.129 | 0.175 | 0.17 | 0.312 | 0.0504 | 0.991 | 1.11 | 1.06 |  | 1.17 | 0.913 | 0.841 | 0.893 | 0.95 | 
5 | HCC-827 | 1.09 | 1.06 | 1.08 | 0.928 | 0.387 | 1.06 | 1.08 | 1.06 | 1.05 | 0.487 | 0.954 |  | 0.987 | 1.01 | 0.953 | 0.959 | 0.967 | 0.937 | 1.05 | 0.971
6 | HOP-62 | 1.12 | 1.13 | 0.938 | 0.328 | 0.0784 | 0.569 | 1.11 | 0.467 | 0.0638 | 0.0695 | 0.994 | 0.996 | 0.943 |  | 0.948 | 1.09 | 1.09 | 1.07 | 1.17 | 1.07
7 | IA-LM | 1.22 | 1.23 | 0.899 | 0.0144 | 0.0167 | 0.293 | 0.305 | 0.292 | 0.0283 | 0.0095 | 0.71 | 0.759 | 0.792 | 0.796 | 0.842 | 1.07 | 1.05 | 1.18 | 1.1 | 1.21
8 | LC-2-ad | 0.881 | 1.01 | 1.08 | 0.903 | 0.221 | 0.448 | 0.525 | 0.455 | 0.149 | 0.16 | 0.412 | 0.432 | 0.44 |  | 0.442 | 0.839 | 0.994 |  | 0.877 | 0.884
9 | LCLC-97TM1 | 0.958 | 0.874 | 0.893 | 0.529 | 0.25 | 0.214 | 0.223 | 0.122 | 0.114 | 0.116 | 0.318 | 0.39 | 0.341 | 0.317 | 0.404 | 0.83 |  |  | 0.801 | 0.959
10 | LCLC-103H | 0.772 | 0.714 | 0.814 | 0.646 | 0.225 | 0.616 | 0.659 | 0.718 | 0.685 | 0.347 |  |  |  |  |  | 0.75 | 0.732 | 0.727 | 0.711 | 0.865
11 | LK-2 | 1.24 | 1.25 | 1.42 | 0.144 | 0.16 |  | 0.826 | 0.64 | 0.266 | 0.251 | 0.826 | 0.938 | 0.674 | 0.967 | 0.905 | 1.19 | 1.42 | 1.2 | 1.27 | 
12 | LOU-NH91 | 0.934 | 1.04 | 0.875 | 0.303 | 0.224 | 0.51 | 0.525 | 0.477 | 0.312 | 0.255 | 0.68 | 0.708 | 0.701 | 0.647 | 0.727 | 0.917 | 0.949 | 0.995 | 0.98 | 0.921
13 | NCI-H358 | 0.688 | 1.01 | 0.63 | 0.0762 | 0.0649 | 0.424 | 0.453 | 0.305 | 0.147 | 0.135 |  |  |  |  |  | 0.609 | 0.835 | 0.649 | 0.713 | 0.624
14 | NCI-H650 |  | 1.27 | 1.03 | 0.71 | 0.174 | 0.83 | 1.06 | 1.01 | 0.385 | 0.189 |  |  |  |  |  | 1.03 | 0.998 | 1.03 | 0.99 | 0.977
15 | NCI-H661 | 1.05 | 1.16 | 1.07 | 1.06 | 0.377 | 0.391 | 0.458 | 0.457 | 0.483 | 0.238 |  |  |  |  |  | 0.941 |  | 1.01 | 0.98 | 1.08
16 | NCI-H1563 | 0.927 | 1.08 | 0.968 | 0.828 | 0.517 | 0.615 | 0.62 | 0.689 | 0.595 | 0.548 |  |  |  |  |  | 0.93 |  | 0.888 | 1.05 | 0.904
17 | NCI-H1623 | 0.838 | 0.906 | 1.14 | 0.455 | 0.514 |  |  |  |  |  |  |  |  |  |  | 0.736 | 0.92 | 0.829 | 0.801 | 0.873
18 | NCI-H1792 |  |  |  |  |  | 0.291 | 0.313 | 0.282 | 0.24 | 0.199 | 0.629 | 0.679 | 0.745 | 0.398 | 0.577 |  |  |  |  | 
19 | NCI-H2342 | 1.04 | 1.06 | 1.08 | 0.988 | 0.621 |  |  |  |  |  |  |  |  |  |  | 1.01 | 1.04 | 1.06 | 1.14 | 0.978
20 | SW 900 | 1.01 | 0.999 | 0.315 | 0.0988 | 0.116 |  |  |  |  |  |  |  |  |  |  | 0.935 | 0.877 | 0.823 | 0.742 | 1.01
